The record followed here is ChEMBL document CHEMBL3352126, “Bahamaolide A from the marine-derived Streptomyces sp. CNQ343 inhibits isocitrate lyase in Candida albicans” (Bioorg Med Chem Lett, 2014).

Structures are written as SMILES. Converted amounts (≈) assume the structure as drawn. The source made the active and inactive calls. The calls are words filed in the database; no cut-off is given here.

One assay addresses Isocitrate lyase (Candida albicans, UniProt Q9P8Q7). The assay can be described thus: Inhibition of Candida albicans ATCC 10231 isocitrate lyase.
Assay [1] concerns Candida albicans. The assay can be described thus: Antifungal activity against Candida albicans ATCC 10259 in YNB broth containing 2% potassium acetate as sole carbon source after 72 hrs by broth dilution assay. The assay is classed as functional. The settings on record: ATCC 10259, 72 h. On the technique in general: In broth dilution the organism is exposed to a series of concentrations in liquid medium.

The test system of assay [2] is Candida albicans. The assay can be described thus: Antifungal activity against Candida albicans ATCC 18804 in YNB broth containing 2% glucose as sole carbon source after 72 hrs by broth dilution assay. The assay is classed as functional. The settings on record: ATCC 18804, 72 h.
Assay [3] concerns Candida albicans. The assay can be described thus: Antifungal activity against Candida albicans ATCC 11006 in YNB broth containing 2% potassium acetate as sole carbon source after 72 hrs by broth dilution assay. The assay is classed as functional. The settings on record: ATCC 11006, 72 h.
In assay [4] the test system is Candida albicans. The assay can be described thus: Antifungal activity against Candida albicans ATCC 11006 in YNB broth containing 2% glucose as sole carbon source after 72 hrs by broth dilution assay. Type of assay: functional. The settings on record: ATCC 11006, 72 h.
Assay [5] has as its system Candida albicans. The assay can be described thus: Antifungal activity against Candida albicans ATCC 18804 in YNB broth containing 2% potassium acetate as sole carbon source after 72 hrs by broth dilution assay. The assay is classed as functional. The settings on record: ATCC 18804, 72 h.
Assay [6] has as its system Candida albicans. The assay can be described thus: Antifungal activity against Candida albicans ATCC 10259 in YNB broth containing 2% glucose as sole carbon source after 72 hrs by broth dilution assay. The assay is classed as functional. The settings on record: ATCC 10259, 72 h.
Assay [7] has as its system Candida albicans. The assay can be described thus: Antifungal activity against Candida albicans SC5314 in YNB broth containing 2% potassium acetate as sole carbon source after 72 hrs by broth dilution assay. The settings on record: SC5314, 72 h. The assay is classed as functional.
In assay [8] the test system is Candida albicans. The assay can be described thus: Antifungal activity against Candida albicans ATCC 10231 in YNB broth containing 2% potassium acetate as sole carbon source after 72 hrs by broth dilution assay. The assay is classed as functional. The following applies: ATCC 10231, 72 h.
The subject of assay [9] is Candida albicans. The assay can be described thus: Antifungal activity against Candida albicans SC5314 in YNB broth containing 2% glucose as sole carbon source after 72 hrs by broth dilution assay. The following applies: SC5314, 72 h. Type of assay: functional.
Assay [10] has as its system Candida albicans. The assay can be described thus: Antifungal activity against Candida albicans ATCC 10231 in YNB broth containing 2% glucose as sole carbon source after 72 hrs by broth dilution assay. Type of assay: functional. The following applies: ATCC 10231, 72 h.
The test system of assay [11] is Candida albicans. The assay can be described thus: Antifungal activity against Candida albicans SC5314 in YNB broth containing 2% glucose as sole carbon source at 3.12 ug/mL after 72 hrs by broth dilution assay. The assay is classed as functional, organism-based.
Assay [12] deals with Candida albicans. The assay can be described thus: Inhibition of ICL mRNA expression in Candida albicans MRC11 (deltaicl + ICL) in YNB broth containing 2% potassium acetate as sole carbon source at 3.12 ug/mL after 48 hrs by real time RT-PCR method. The assay is classed as functional, organism-based. For orientation: Quantitative PCR measures a nucleic acid by following its amplification.

Assay [13] has as its system Candida albicans. The assay can be described thus: Antifungal activity against Candida albicans MRC10 (deltaicl) in YNB broth containing 2% potassium acetate as sole carbon source at 3.12 ug/mL after 72 hrs by broth dilution assay. Type of assay: functional, organism-based.
Assay [14] relates to Candida albicans. The assay can be described thus: Inhibition of ICL mRNA expression in Candida albicans MRC10 (deltaicl) in YNB broth containing 2% potassium acetate as sole carbon source at 3.12 ug/mL after 48 hrs by real time RT-PCR method. Type of assay: functional, organism-based.
The test system of assay [15] is Candida albicans. The assay can be described thus: Inhibition of ICL mRNA expression in Candida albicans SC5314 in YNB broth containing 2% potassium acetate as sole carbon source at 3.12 ug/mL after 48 hrs by real time RT-PCR method. The assay is classed as functional.
Assay [16] deals with Candida albicans. The assay can be described thus: Antifungal activity against Candida albicans Candida albicans MRC11 (deltaicl + ICL) in YNB broth containing 2% potassium acetate as sole carbon source at 3.12 ug/mL after 72 hrs by broth dilution assay. Type of assay: functional, organism-based.

Sequence of Isocitrate lyase (Q9P8Q7 whole entry): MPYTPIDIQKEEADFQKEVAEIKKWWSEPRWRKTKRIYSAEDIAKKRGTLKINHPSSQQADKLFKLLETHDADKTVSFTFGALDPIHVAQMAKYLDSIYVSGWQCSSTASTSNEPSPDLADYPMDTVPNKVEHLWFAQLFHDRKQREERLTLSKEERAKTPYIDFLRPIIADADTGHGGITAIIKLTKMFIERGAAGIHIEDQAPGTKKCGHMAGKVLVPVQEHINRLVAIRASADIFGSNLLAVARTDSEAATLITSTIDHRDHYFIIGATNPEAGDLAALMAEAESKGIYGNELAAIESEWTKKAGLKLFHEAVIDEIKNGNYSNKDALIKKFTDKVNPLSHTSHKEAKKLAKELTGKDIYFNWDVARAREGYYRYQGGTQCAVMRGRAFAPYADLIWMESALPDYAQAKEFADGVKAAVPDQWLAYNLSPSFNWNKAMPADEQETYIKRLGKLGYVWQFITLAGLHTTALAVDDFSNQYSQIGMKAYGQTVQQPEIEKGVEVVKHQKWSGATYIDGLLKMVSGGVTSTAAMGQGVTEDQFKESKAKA

What is called IC50 is the concentration that inhibits the measured activity by half. `O=C(O)CC[N+](=O)[O-]` showed a half-maximal inhibitory concentration (IC50) at Isocitrate lyase of 17.3 µM.
As a reminder, the MIC is the lowest concentration found to suppress growth. The low end stands for greater potency, the high end for weaker potency. Regarding `C[C@@H]1[C@H](O)[C@@H](C)/C=C/C=C/C=C/C=C/C=C/C=C/C=C/[C@H](O[C@@H]2O[C@H](C)[C@@H](O)[C@H](N)[C@@H]2O)C[C@@H]2O[C@](O)(C[C@@H](O)C[C@@H](O)[C@H](O)CC[C@@H](O)C[C@@H](O)CC(=O)O[C@H]1C)C[C@H](O)[C@H]2C(=O)O` [AMPHOTERICIN B], the MIC in the assay on Candida albicans [1] was determined as 1.56 µg/mL (≈ 1.69 µM); in the assay with Candida albicans [2] it was 1.56 µg/mL (≈ 1.69 µM); with Candida albicans [3], 0.78 µg/mL (≈ 0.844 µM); against Candida albicans [4], 1.56 µg/mL (≈ 1.69 µM); against Candida albicans [5], 0.78 µg/mL (≈ 0.844 µM); against Candida albicans [6], 3.12 µg/mL (≈ 3.38 µM). The MIC came to 0.39 µg/mL (≈ 0.422 µM) with Candida albicans [7], 0.78 µg/mL (≈ 0.844 µM) with Candida albicans [8], 1.56 µg/mL (≈ 1.69 µM) in the assay with Candida albicans [9] and 1.56 µg/mL (≈ 1.69 µM) against Candida albicans [10].
On to `CC(C)[C@@H]1OC(=O)/C=C/C=C/C=C/C=C/C=C/C=C/C[C@@H](O)C[C@H](O)C[C@H](O)C[C@H](O)C[C@@H](O)C[C@H](O)C[C@@H](O)C[C@@H](O)C[C@@H](O)CC[C@@H]1C` [BAHAMAOLIDE A], for which the “growth inhibition (GI)” value in the assay on Candida albicans [11] was “inactive”. Moreover, the MIC is 3.12 µg/mL (≈ 4.4 µM) in the assay on Candida albicans [1]; 25 µg/mL (≈ 35.3 µM) with Candida albicans [2]; 1.56 µg/mL (≈ 2.2 µM) in the assay on Candida albicans [3]; 12.5 µg/mL (≈ 17.6 µM) in the assay with Candida albicans [4]; 3.12 µg/mL (≈ 4.4 µM) against Candida albicans [5]; 25 µg/mL (≈ 35.3 µM) with Candida albicans [6]. Also, the MIC against Candida albicans [7] stood at 3.12 µg/mL (≈ 4.4 µM); in the assay with Candida albicans [8], 3.12 µg/mL (≈ 4.4 µM); in the assay on Candida albicans [9], 25 µg/mL (≈ 35.3 µM); against Candida albicans [10] it was 25 µg/mL (≈ 35.3 µM). In addition, the inhibition entry in the assay on Candida albicans [12] and in the assay with Candida albicans [14] was “Active” in each case. Also, the “growth inhibition (GI)” value in the assay on Candida albicans [13] and with Candida albicans [16] was “Active” each time. Moreover, the IC50 against Isocitrate lyase came out at 11.8 µM. Moreover, in the assay with Candida albicans [15], the “fold change (FC)” value is 5.
